Data as given in patent US9376454B2, “Beta-lactamase inhibitors” (priority 2013, dated 2016).

Assays:
Assay type in all cases: biochemical
p99 AmpC β-lactamase = target: T1, p99 AmpC β-lactamase (Enterobacter cloacae, UniProt P05364); assay: β-Lactamase inhibition enzyme assay, p99 AmpC
T1 construct: made in house; host or cells: E. coli BL21(DE3)
Experimental: (§1) For SHV-5, Kpc-2, p99AmpC and OXA-1 β-lactamases, E. coli BL21(DE3) bacterial cells carrying expression plasmids (expressed as native untagged proteins) for the individual β-lactamases were grown in 1 L of Superbroth (Teknova Inc. Hollister, Calif.) supplemented with 100 μg/ml kanamycin selection and 1×5052 (0.5% glycerol, 0.05% glucose and 0.2% α-lactose) at 35° C. for 18-20 hours. Cells were harvested by centrifugation (4,000×g, 4° C., 20 min), resuspended in 50 ml of 10 mM HEPES pH 7.5 ( 1/20 of the initial volume). The cells were lysed by sonication (5 pulses of 45 seconds) at 45 W on ice. The lysates were clarified by centrifugation at 10,000×g for 40 minutes at 4° C. Samples were diluted 5-fold in 50 mM sodium acetate pH 5.0, stored overnight at 4° C., after which they were centrifuged at 10,000×g for 30 minutes to clarify, and filtered through 0.45 μm filters. The samples were loaded onto a 5 ml Capto S sepharose cation exchange column (GE Healthcare) pre-equilibrated with 50 mM sodium acetate pH 5.0. The column was washed with 5 column volumes of 50 mM sodium acetate pH 5.0 to wash out unbound protein and a linear gradient of NaCl (0 to 500 mM) was used to elute the protein (over 16 CV) from the column. Fractions were assayed for β-lactamase activity using Centa (Calbiochem, Gibbstown, N.J.) or Nitrocefin (EMD Millipore chemicals, Darmstadt, Germany) as a reporter β-lactamase substrate for activity in the isolated fractions. Active fractions were pooled, concentrated and further purified by gel filtration chromatography on a Superdex 75 prep grade gel filtration column (GE Healthcare, Piscataway, N.J.) pre-equilibrated in 50 mM Hepes pH 7.5, 150 mM NaCl. Active fractions were pooled concentrated, quantitated by BCA protein determination (Thermo Scientific, Rockford, Ill.), dialyzed into PBS and frozen at −80° C. in 20% glycerol until use.
(§2) An equal volume of diluted enzyme stock was added, and the plates were incubated at 37° C. for 15 min. Nitrocefin was used as substrate for p99 AmpC, VIM-2 and OXA-1 and dispensed into each well at a final concentration of 100 μM. Absorbance at 486 nm was immediately monitored for 10 min using a Biotek Powerwave XS2 microplate spectrophotometer using the GEN5 softweare package (Biotek Instruments, Winooski Vt.). In an analogous fashion, imipenem was used as substrate for Kpc-2 and Cefotaxime was used for SHV-5, while changes in absorbance upon hydrolysis of the β-lactam ring were monitored at 300 nm and 260 nm respectively in UV-transparent 96-well microtiter assay plates. Maximum rates of hydrolysis were compared to those in control wells (without inhibitors), and percentages of enzyme inhibition were calculated for each concentration of inhibitor. The concentration of inhibitor needed to reduce the initial rate of hydrolysis of substrate by 50% (IC50) was calculated as the residual activity of β-lactamase at 486 nm using GraFit version 7 kinetics software package (Erithacus Software, Surrey, UK).

SHV-5 β-lactamase = target: T2, SHV-5 β-lactamase (Klebsiella pneumoniae, UniProt P0A3M1); assay: β-Lactamase inhibition enzyme assay, SHV-5
T2 construct: made in house; host or cells: E. coli BL21(DE3)
Experimental: as §1, §2

OXA-1 β-lactamase = target: T3, OXA-1 β-lactamase (Escherichia coli, UniProt P13661); assay: β-Lactamase inhibition enzyme assay, OXA-1; conditions: Nitrocefin 100 μM as substrate, 486 nm; 15 min at 37° C. with enzyme, PBS pH 7.4; read-out: Class D OXA-1 IC50
T3 construct: made in house; host or cells: E. coli BL21(DE3)
Experimental: as §1, §2

[1] = target: T4, VIM-2 metallo β-lactamase (Pseudomonas aeruginosa, UniProt Q9K2N0); assay: β-Lactamase inhibition enzyme assay, VIM-2; conditions: Nitrocefin 100 μM as substrate, 486 nm; 15 min at 37° C. with enzyme, PBS pH 7.4; read-out: Class B VIM-2 IC50
T4 construct: made in house; host or cells: E. coli BL21(DE3)
Experimental: as §1
For Vim-2 metallo β-lactamase, the procedure was identical with the following exceptions, first the protein was not pH adjusted to pH 5 with 50 mM sodium acetate, second, the chromatography step was changed to a 5 ml Q sepharose anion exchange column pre-equilibrated with 50 mM Hepes pH 7.5, and elution of the protein was achieved by a linear gradient of NaCl (0-600 mM). Finally, the VIM-2 purification required a second run (3rd step) on the Q sepharose anion exchange column to achieve acceptable purity (>90%).
as §2

KPC-2 β-lactamase = target: T5, KPC-2 β-lactamase (Klebsiella pneumoniae, UniProt Q9F663); assay: β-Lactamase inhibition enzyme assay, KPC-2; conditions: imipenem as substrate, 300 nm; 15 min at 37° C. with enzyme, PBS pH 7.4; read-out: Class A KPC-2 IC50
T5 construct: made in house; host or cells: E. coli BL21(DE3)
Experimental: as §1, §2

T5 sequence (Q9F663 25-293, looked up): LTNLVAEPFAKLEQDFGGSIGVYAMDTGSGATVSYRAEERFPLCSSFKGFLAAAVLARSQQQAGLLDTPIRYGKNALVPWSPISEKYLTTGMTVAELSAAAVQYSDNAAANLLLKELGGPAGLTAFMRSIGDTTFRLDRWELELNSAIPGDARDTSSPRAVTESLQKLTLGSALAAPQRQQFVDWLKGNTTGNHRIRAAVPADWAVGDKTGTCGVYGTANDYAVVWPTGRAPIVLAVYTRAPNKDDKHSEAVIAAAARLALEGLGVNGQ
T2 sequence (P0A3M1 22-286): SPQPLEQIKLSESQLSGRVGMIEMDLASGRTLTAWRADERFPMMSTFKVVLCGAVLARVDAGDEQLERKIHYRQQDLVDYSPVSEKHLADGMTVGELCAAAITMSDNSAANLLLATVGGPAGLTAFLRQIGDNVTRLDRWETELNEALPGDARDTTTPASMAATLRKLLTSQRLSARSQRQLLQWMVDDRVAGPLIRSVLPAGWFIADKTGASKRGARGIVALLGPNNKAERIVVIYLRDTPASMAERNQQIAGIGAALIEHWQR
T3 sequence (P13661 26-276): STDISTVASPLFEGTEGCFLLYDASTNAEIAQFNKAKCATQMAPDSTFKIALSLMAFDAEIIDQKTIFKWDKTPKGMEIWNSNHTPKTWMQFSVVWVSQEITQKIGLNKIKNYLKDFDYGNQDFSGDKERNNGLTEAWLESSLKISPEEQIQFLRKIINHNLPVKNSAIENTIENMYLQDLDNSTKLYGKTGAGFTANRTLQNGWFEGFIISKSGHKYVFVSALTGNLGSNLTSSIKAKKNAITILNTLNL
T1 sequence (P05364 21-381): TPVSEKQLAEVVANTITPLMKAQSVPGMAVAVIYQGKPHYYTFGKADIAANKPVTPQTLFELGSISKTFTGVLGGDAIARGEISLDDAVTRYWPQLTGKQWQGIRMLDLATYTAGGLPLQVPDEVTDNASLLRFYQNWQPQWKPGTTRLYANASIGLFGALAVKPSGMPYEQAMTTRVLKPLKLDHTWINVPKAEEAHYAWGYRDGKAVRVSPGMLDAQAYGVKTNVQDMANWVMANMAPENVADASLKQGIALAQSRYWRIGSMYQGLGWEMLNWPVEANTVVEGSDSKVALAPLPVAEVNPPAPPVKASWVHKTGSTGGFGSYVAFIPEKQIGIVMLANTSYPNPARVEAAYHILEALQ

| Structure (SMILES) | IC50 (p99 AmpC β-lactamase) [µM] | IC50 (SHV-5 β-lactamase) [µM] | IC50 (OXA-1 β-lactamase) [µM] | IC50 [1] [µM] | IC50 (KPC-2 β-lactamase) [µM] |
| --- | --- | --- | --- | --- | --- |
| N=C(N)NCc1ccc(C(=O)N[C@H]2Cc3cccc(C(=O)O)c3OB2O)cc1CNC(=N)N [Example 25, (R)-3-(3,4-bis(guanidinomethyl)benzamido)-2-hydroxy-3,4-dihydro-2H-benzo[e][1,2]oxaborinine-8-carboxylic acid] | < 0.1 | 0.1 to 1 | 0.1 to 1 | < 0.1 | < 0.1 |
| O=C(O)c1ccccc1C(=O)N[C@H]1Cc2cccc(C(=O)O)c2OB1O [Example 53, (R)-3-(2-carboxybenzamido)-2-hydroxy-3,4-dihydro-2H-benzo[e][1,2]oxaborinine-8-carboxylic acid] | < 0.1 | 0.1 to 1 | < 0.1 | 1 to 10 | 0.1 to 1 |
| CN(C)Cc1ccc(C(=O)N[C@H]2Cc3cccc(C(=O)O)c3OB2O)cc1N [Example 18, (R)-3-(3-amino-4-((dimethylamino)methyl)benzamido)-2-hydroxy-3,4-dihydro-2H-benzo[e][1,2]oxaborinine-8-carboxylic acid] | < 0.1 | < 0.1 | < 0.1 | 0.1 to 1 | < 0.1 |
| O=C(O)c1cccc2c1OB(O)[C@@H](NC(=O)c1cccc3cc[nH]c13)C2 [Example 31, (R)-2-hydroxy-3-(1H-indole-7-carboxamido)-3,4-dihydro-2H-benzo[e][1,2]oxaborinine-8-carboxylic acid] | < 0.1 | 0.1 to 1 | < 0.1 | 1 to 10 | < 0.1 |
| O=C(N[C@H]1Cc2cccc(C(=O)O)c2OB1O)c1ccc2nc[nH]c2c1 [Example 34, (R)-3-[(3H-Benzoimidazole-5-carbonyl)-amino]-2-hydroxy-3,4-dihydro-2H-benzo[e][1,2]oxaborinine-8-carboxylic acid] | < 0.1 | < 0.1 | < 0.1 | 0.1 to 1 | < 0.1 |
| O=C(N[C@H]1Cc2cccc(C(=O)O)c2OB1O)c1ccc2c(c1)CN(Cc1cccnc1)C2 [Example 12, (R)-2-hydroxy-3-(2-(pyridin-3-ylmethyl)isoindoline-5-carboxamido)-3,4-dihydro-2H-benzo[e][1,2]oxaborinine-8-carboxylic acid] | < 0.1 | < 0.1 | < 0.1 | 0.1 to 1 | < 0.1 |
| O=C(Cc1cnc2c(c1)CCCN2)N[C@H]1Cc2cccc(C(=O)O)c2OB1O [Example 13, (R)-2-hydroxy-3-(2-(5,6,7,8-tetrahydro-1,8-naphthyridin-3-yl)acetamido)-3,4-dihydro-2H-benzo[e][1,2]oxaborinine-8-carboxylic acid] | < 0.1 | < 0.1 | < 0.1 | 1 to 10 | 0.1 to 1 |
| O=C(N[C@H]1Cc2cccc(C(=O)O)c2OB1O)c1ccc(-c2ccncc2)cc1 [Example 27, (R)-2-hydroxy-3-(4-(pyridin-4-yl)benzamido)-3,4-dihydro-2H-benzo[e][1,2]oxaborinine-8-carboxylic acid] | < 0.1 | < 0.1 | < 0.1 | 1 to 10 | < 0.1 |
| O=C(Cc1ccc2c(c1)CNCC2)N[C@H]1Cc2cccc(C(=O)O)c2OB1O [Example 51, (R)-2-Hydroxy-3-(2-1,2,3,4-tetrahydro-isoquinolin-7-yl-acetylamino)-3,4-dihydro-2H-benzo[e][1,2]oxaborinine-8-carboxylic acid] | < 0.1 | < 0.1 | < 0.1 | < 0.1 | < 0.1 |
| O=C(N[C@H]1Cc2cccc(C(=O)O)c2OB1O)c1ccc2[nH]ccc2c1 [Example 26, (R)-2-hydroxy-3-(1H-indole-5-carboxamido)-3,4-dihydro-2H-benzo[e][1,2]oxaborinine-8-carboxylic acid] | < 0.1 | < 0.1 | < 0.1 | 0.1 to 1 | < 0.1 |
| O=C(O)c1cccc2c1OB(O)[C@@H](NC(=O)C(F)(F)c1ccccc1)C2 [Example 2, (R)-3-(2,2-difluoro-2-phenylacetamido)-2-hydroxy-3,4-dihydro-2H-benzo[e][1,2]oxaborinine-8-carboxylic acid] | < 0.1 | < 0.1 | < 0.1 | 1 to 10 | < 0.1 |
| NC1=Nc2cc(C(=O)N[C@H]3Cc4cccc(C(=O)O)c4OB3O)ccc2CN1 [Example 15, (R)-3-(2-amino-3,4-dihydroquinazoline-7-carboxamido)-2-hydroxy-3,4-dihydro-2H-benzo[e][1,2]oxaborinine-8-carboxylic acid] | < 0.1 | < 0.1 | 0.1 to 1 | 1 to 10 | 0.1 to 1 |
| O=C(Cc1ccc2cc[nH]c2c1)N[C@H]1Cc2cccc(C(=O)O)c2OB1O [Example 46, (R)-2-Hydroxy-3-(2-1H-indol-6-yl-acetylamino)-3,4-dihydro-2H-benzo[e][1,2]oxaborinine-8-carboxylic acid] | < 0.1 | < 0.1 | < 0.1 | < 0.1 | < 0.1 |
| CN1CCc2c(C(=O)N[C@H]3Cc4cccc(C(=O)O)c4OB3O)csc2C1 [Example 6, (R)-2-hydroxy-3-(6-methyl-4,5,6,7-tetrahydrothieno[2,3-c]pyridine-3-carboxamido)-3,4-dihydro-2H-benzo[e][1,2]oxaborinine-8-carboxylic acid] | < 0.1 | < 0.1 | < 0.1 | 1 to 10 | < 0.1 |
| NCc1cc(C(=O)N[C@H]2Cc3cccc(C(=O)O)c3OB2O)cnc1CN [Example 62, (R)-3-(5,6-bis(aminomethyl)nicotinamido)-2-hydroxy-3,4-dihydro-2H-benzo[e][1,2]oxaborinine-8-carboxylic acid] | < 0.1 | < 0.1 | < 0.1 | 0.1 to 1 | < 0.1 |
| NCCNc1ccc(CC(=O)N[C@H]2Cc3cccc(C(=O)O)c3OB2O)cn1 [Example 60, (R)-3-(2-(6-(2-aminoethylamino)pyridin-3-yl)acetamido)-2-hydroxy-3,4-dihydro-2H-benzo[e][1,2]oxaborinine-8-carboxylic acid] | < 0.1 | < 0.1 | < 0.1 | 0.1 to 1 | < 0.1 |
| NCc1ccc(C(=O)N[C@H]2Cc3cccc(C(=O)O)c3OB2O)cc1CN [Example 14, (R)-3-(3,4-bis(aminomethyl)benzamido)-2-hydroxy-3,4-dihydro-2H-benzo[e][1,2]oxaborinine-8-carboxylic acid] | < 0.1 | 0.1 to 1 | < 0.1 | < 0.1 | 0.1 to 1 |
| O=C(O)c1cccc2c1OB(O)[C@@H](NC(=O)c1c[nH]c3ncccc13)C2 [Example 8, (R)-2-hydroxy-3-(1H-pyrrolo[2,3-b]pyridine-3-carboxamido)-3,4-dihydro-2H-benzo[e][1,2]oxaborinine-8-carboxylic acid] | < 0.1 | < 0.1 | – | 1 to 10 | 0.1 to 1 |
